Laboratory results from publication PMC9916857, “Triterpenoids from Kochiae Fructus: Glucose Uptake in 3T3-L1 Adipocytes and α-Glucosidase Inhibition, In Silico Molecular Docking” (International Journal of Molecular Sciences, 2023).
Entries after “also recorded” stand apart in the source; their conditions may differ. Marks after values point to notes of the source that are not given here.

What was measured:
[1] = test system: α-glucosidase; experiment: In vitro α-glucosidase inhibition assay (pNPG substrate); assay type: biochemical; details: for Inhibitory Rate (%): mean ± SD (n = 3); for IC50: mean ± SD, n = 3
Protocol: The α-glucosidase inhibition assay was carried out on the basis of the method reported by Zhang et al., with minor modifications. […] […] To initiate the reaction, pNPG (40 μL) was added to the reaction mixture and incubated at 37 °C for 30 min. The reaction was terminated by adding 20 μL of Na2CO3, after which the absorbance was determined at 405 nm by a microplate reader (SpectraMax190, Micro-g Biotech, Guangzhou, China).

[2] = molecular target: α-glucosidase−pNPG complex; experiment: Kinetics of α-glucosidase inhibition, S/v versus [I] plot (Ki’); assay type: biochemical
Protocol: (§1) The kinetic analysis of compounds 3, 9, and 13 were measured using the reaction conditions in Section 3.6. Typically, three different concentrations of each compound around the IC50 values were chosen. Under each concentration, α-glucosidase activity was assayed by varying the concentration of pNPG as a substrate. […] Ki and Ki’ values were determined from 1/v versus [I] (Dixon plot) and S/v versus [I] plots, respectively.

[3] = molecular target: α-glucosidase; experiment: Kinetics of α-glucosidase inhibition (Lineweaver–Burk and Dixon plots); assay type: biochemical; details: for Ki: Dixon plot, 1/v versus [I], read-out: Ki (inhibitor binding to α-glucosidase); for Inhibition type: Lineweaver–Burk and Dixon plots; for Change of Km and Vmax with increased concentration of inhibitor: Lineweaver–Burk plot
Protocol: as §1

[4] = test system: 3T3-L1 adipocytes; experiment: Cell viability (CellTiter 96 AQueous One Solution) after the glucose uptake experiment; assay type: cell-based, murine; details: compounds at 20 μM, compared to the control group
Protocol: The murine 3T3-L1 preadipocytes were supplied by the American Type Culture Collection (ATCC, Manassas, VA, USA). The cells were cultured in high-glucose DMEM supplemented with 10% (v/v) newborn calf serum (NBCS), 1% (v/v) Pen-Strep solution (P/S) at 37 °C in a humidified atmosphere of 5% CO2, and then starved until the cells reached confluence (day 0). Two days later (day 2), the cells were cultured in DMEM supplemented with 10% (v/v) fetal bovine serum (FBS), 1% (v/v) P/S, 0.5 mM 3-isobutyl-1-methylxanthine (IBMX), 1 μM dexamethasone (DEX), 1 μM rosiglitazone (ROSI) and 100 nM insulin. Three days after (day 5) the induction, the culture medium was replaced with DMEM containing 10% (v/v) FBS, 1% (v/v) P/S, and 100 nM insulin for one day (day 6). […]
Cell viability was detected by using a CellTiter 96® AQueous One Solution Cell Proliferation Assay (Promega Corporation, Madison, WI, USA) according to the manufacturer’s instructions after the glucose uptake experiment. CellTiter 96® AQueous One Solution Cell Proliferation Assay reagent (20 µL/well) was added to the plate and incubated at 37 °C for 180 min before absorbance was measured at 490 nm, and the relative cell viability was calculated as follows:Relative cell viability (%) = A1/A2 × 100(2) where […].

[5] = test system: 3T3-L1 adipocytes; experiment: Insulin-induced glucose uptake assay in 3T3-L1 adipocytes; assay type: cell-based, murine
Protocol: The murine 3T3-L1 preadipocytes were supplied by the American Type Culture Collection (ATCC, Manassas, VA, USA). The cells were cultured in high-glucose DMEM supplemented with 10% (v/v) newborn calf serum (NBCS), 1% (v/v) Pen-Strep solution (P/S) at 37 °C in a humidified atmosphere of 5% CO2, and then starved until the cells reached confluence (day 0). Two days later (day 2), the cells were cultured in DMEM supplemented with 10% (v/v) fetal bovine serum (FBS), 1% (v/v) P/S, 0.5 mM 3-isobutyl-1-methylxanthine (IBMX), 1 μM dexamethasone (DEX), 1 μM rosiglitazone (ROSI) and 100 nM insulin. Three days after (day 5) the induction, the culture medium was replaced with DMEM containing 10% (v/v) FBS, 1% (v/v) P/S, and 100 nM insulin for one day (day 6). Then the cells were completely differentiated into mature adipocytes (Figure 11).
The mature adipocytes were inoculated in a 96-well plate at 5 × 10^4 cells per well for 24 h. The 3T3-L1 adipocytes were divided into model groups (blank control), insulin group (250 ng/mL, positive control), and sample group (20 μM). […] The absorbance value was detected by a microplate reader at 505 nm. The glucose uptake rate was calculated as follows:Glucose uptake rate (%) = [1 − A2/A1] × 100(1) where A1 is the absorbance of the mixed-glucose, DMEM-supplemented control, and A2 is the absorbance of the blank, insulin, or sample group.

[6] = percent inhibition at a concentration of 50 μM

| IC50 [1] [µM] | Inhibitory Rate (%) [1, 6] | Compound | other results |
| --- | --- | --- | --- |
|  |  | C[C@H]1O[C@H](O[C@H]2[C@H](O)[C@@H](O)[C@@H](O[C@H]3[C@H](O)[C@@H](O)C(O)O[C@@H]3CO)O[C@@H]2CO)[C@H](O)[C@@H](O)[C@@H]1N[C@H]1C=C(CO)[C@@H](O)[C@H](O)[C@H]1O (some centres unmarked) [Acarbose, acarbose, reference compound] | Inhibitory Rate (%) ([1]; percent inhibition at a concentration of 0.012 μM): 87.04 ± 0.29 ^a % |
| > 50 | 13.71 ± 0.54 ^j % | CC1(C)CCC2(C(=O)O)CCC3(C)C(=CCC4C5(C)CCC(OC6OC(C(=O)O)C(O)C(OC7OCC(O)C(O)C7O)C6O)C(C)(C(=O)O)C5CCC43C)C2C1 [Compound 1, 3(β)-3-O-β-D-xylopyranosly(1→3)-β-D-glucopyranosiduronic acid-12-en-23,28-dioic acid] |  |
| > 50 | 14.05 ± 4.90 ^j % | COC(=O)C1OC(OC2CCC3(C)C(CCC4(C)C3CC=C3C5CC(C)(C)CCC5(C(=O)O)CCC34C)C2(C)C(=O)O)C(O)C(OC2OCC(O)C(O)C2O)C1O [Compound 2, 3(β)-3-O-β-D-xylopyranosly(1→3)-β-D-glucopyranosiduronic acid 6-methyl ester-12-en-23,28-dioic acid] |  |
| 23.5 ± 3.37 | 59.79 ± 1.04 ^d % | CC1(C)CCC2(C(=O)OC3OC(CO)C(O)C(O)C3O)CCC3(C)C(=CCC4C5(C)CC(O)C(O)C(C)(C)C5CCC43C)C2C1 [Compound 3, 2β,3β-dihydroxyolean-12-en-28-oic acid 28-O-β-D-glucopyranoside] | Ki’ (inhibitor binding to the α-glucosidase−pNPG complex) [2]: 47.89 ± 1.37 μM; Ki [3]: 56.9 ± 1.23 µM; Inhibition type [3]: mixed-type; Change of Km and Vmax with increased concentration of inhibitor [3]: Vmax values decreased and the Km values increased |
| > 50 | 26.28 ± 1.01 ^i % | CC1(C)CC[C@]2(C(=O)O)CC[C@]3(C)C(=CC[C@@H]4[C@@]5(C)CC[C@H](O[C@@H]6O[C@H](C(=O)O)[C@@H](O)[C@H](O[C@@H]7OC[C@@H](O)[C@H](O)[C@H]7O)[C@H]6O)C(C)(C)[C@@H]5CC[C@]43C)[C@@H]2C1 [Compound 4, momordin Ic] |  |
| > 50 | 29.62 ± 2.26 ^i % | COC(=O)C1OC(OC2CCC3(C)C(CCC4(C)C3CC=C3C5CC(C)(C)CCC5(C(=O)O)CCC34C)C2(C)C)C(O)C(OC2OCC(O)C(O)C2O)C1O (centres unmarked) [Compound 5, momordin Ic 6’-methyl ester] |  |
| > 50 | 35.00 ± 0.40 ^h % | CCOC(=O)C1OC(OC2CCC3(C)C(CCC4(C)C3CC=C3C5CC(C)(C)CCC5(C(=O)O)CCC34C)C2(C)C)C(O)C(OC2OCC(O)C(O)C2O)C1O (centres unmarked) [Compound 6, momordin Ic ethyl ester] |  |
| > 50 | 52.71 ± 0.85 ^f % | CC1(C)CC[C@]2(C(=O)O[C@@H]3O[C@H](CO)[C@@H](O)[C@H](O)[C@H]3O)CC[C@]3(C)C(=CC[C@@H]4[C@@]5(C)CC[C@H](O[C@@H]6O[C@H](C(=O)O)[C@@H](O)[C@H](O[C@@H]7OC[C@@H](O)[C@H](O)[C@H]7O)[C@H]6O)C(C)(C)[C@@H]5CC[C@]43C)[C@@H]2C1 [Compound 7, momordin IIc] |  |
| > 50 | 57.02 ± 36.3 ^e % | COC(=O)C1OC(OC2CCC3(C)C(CCC4(C)C3CC=C3C5CC(C)(C)CCC5(C(=O)OC5OC(CO)C(O)C(O)C5O)CCC34C)C2(C)C)C(O)C(OC2OCC(O)C(O)C2O)C1O (centres unmarked) [Compound 8, momordin IIc 6’-methyl ester] |  |
| 4.29 ± 0.52 | 74.41 ± 1.02 ^b % | CC1(C)CCC2(C(=O)OC3OC(CO)C(O)C(O)C3O)CCC3(C)C(=CCC4C5(C)CCC(OC6OC(C(=O)O)C(O)C(OC7OCC(O)C(O)C7O)C6OC6OC(CO)C(O)C(O)C6O)C(C)(C)C5CCC43C)C2C1 [Compound 9, 2’-O-β-D-glucopyranosyl momordin IIc] | Ki’ (inhibitor binding to the α-glucosidase−pNPG complex) [2]: 19.52 ± 0.26 μM; Ki [3]: 48.88 ± 0.07 µM; Inhibition type [3]: mixed-type; Change of Km and Vmax with increased concentration of inhibitor [3]: both the Km and Vmax values decreased |
| > 50 | 53.98 ± 1.65 ^e % | CC1(C)CC[C@]2(C(=O)O)CC[C@]3(C)C(=CC[C@@H]4[C@@]5(C)CC[C@H](O)[C@@](C)(C(=O)O)[C@@H]5CC[C@]43C)[C@@H]2C1 [Compound 11, gypsogenic acid] |  |
|  | 41.48 ± 1.66 ^g % | CC1(C)CCC2(C(=O)OC3OC(CO)C(O)C(O)C3O)CCC3(C)C(=CCC4C5(C)CCC(O)C(C)(C)C5CCC43C)C2C1 [Compound 12, oleanolic acid 28-O-β-D-glucopyranosyl ester] |  |
| 17 ± 2.7 | 69.91 ± 0.59 ^c % | CC1(C)CC2C3=CCC4[C@@]5(C)CC[C@H](O)C(C)(C)C5CC[C@@]4(C)[C@]3(C)CC[C@@]2(C(=O)O)[C@H](O)C1 (some centres unmarked) [Compound 13] | Ki’ (inhibitor binding to the α-glucosidase−pNPG complex) [2]: 8.82 ± 0.06 μM; Ki [3]: 13.6 ± 0.42 µM; Inhibition type [3]: mixed-type; Change of Km and Vmax with increased concentration of inhibitor [3]: both the Km and Vmax values decreased; Cell viability / cytotoxicity [4]: without inhibitory effects on cell viability; Effect on glucose uptake ([5]; compound at 20 μM, 24 h, p < 0.001 versus model group): potent effect; also recorded: strong effect; also recorded: significant promotion |
| > 50 | 17.49 ± 4.45 ^j % | CC1(C)C=C2C3CCC4[C@@]5(C)CC[C@H](O[C@@H]6O[C@H](CO)[C@@H](O)[C@H](O)[C@H]6O)C(C)(C)C5CC[C@@]4(C)[C@]3(C)CC[C@@]2(C(=O)O)CC1 (stereo partly drawn) [Compound 14, (3β)-3-(β-D-glucopyranosyloxy)olean-18-en-28-oic acid] |  |
|  |  | insulin | Effect on glucose uptake ([5]; insulin at 250 ng/mL (positive control), p < 0.001 versus control group): significantly promote |
